Key:
[1] = In vivo pharmacokinetic properties in rats (IV and PO); design: species or system male Sprague Dawley rats
How it was run: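 Male Sprague Dawley rats received 2.00 mg/kg IV via the tail vein, with plasma sampled from a cannulated jugular vein from 0.083 to 24 h. Oral dosing was 10 mg/kg in rats or C57BL/6J mice, sampled at 0.25-24 h by jugular cannula (rats) or retro-orbital plexus (mice).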

[2] = In vivo pharmacokinetic properties in mice (IV and PO); design: species or system C57BL/6J mice; conditions: mouse, in vivo
How it was run: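 Male C57BL/6J mice received 10 mg/kg orally; plasma sampled by retro-orbital capillary at 0.25–24 h. IV dosing described at 2.00 mg/kg via tail vein, plasma sampled 0.083–24 h.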

[3] = Plasma and liver compound levels in mice after oral administration; type: in vivo
How it was run: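 Mice were dosed orally by gavage with compound in 0.5% methylcellulose (5% N-methyl pyrrolidone added when needed). Retro-orbital plasma and unperfused liver collected at 6 h or 24 h and stored at −80 °C for bioanalysis.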

Intravenous Delivery (IV) CL ([1]; IV, 2 mg/kg): 30.1 mL/min/kg
Intravenous Delivery (IV) T1/2 ([1]; IV, 2 mg/kg): 1.53 h
Intravenous Delivery (IV) Vd ([1]; IV, 2 mg/kg): 4.02 L/kg
% F (Bioavailability of oral delivery) ([1]; PO 10 mg/kg vs IV 2 mg/kg): 24%
Oral Administration (PO) AUC0-last ([1]; PO, 10 mg/kg): 1307
Oral Administration (PO) T1/2 ([1]; PO, 10 mg/kg): 5.1 h
Oral Administration (PO) Tmax ([1]; PO, 10 mg/kg): 1.67 h
% F (Bioavailability of oral delivery) [2]: 58%
Intravenous Delivery (IV) AUC0-last ([2]; iv, 2 mg/kg): 1900 ng·h/mL
Intravenous Delivery (IV) CL ([2]; iv, 2 mg/kg): 17.5 mL/min/kg
Intravenous Delivery (IV) T1/2 ([2]; iv, 2 mg/kg): 3.39 h
Intravenous Delivery (IV) Vd ([2]; iv, 2 mg/kg): 5.13 L/kg
Oral Administration (PO) AUC0-last ([2]; po, 10 mg/kg): 5400 ng·h/mL
Oral Administration (PO) T1/2 ([2]; po, 10 mg/kg): 4.72 h
Oral Administration (PO) Tmax ([2]; po, 10 mg/kg): 1 h
Liver ng/mg (6 h) ([3]; 10 mpk): 100 to 1000 ng/mg
Plasma ng/mL (6 h) ([3]; 10 mpk): <100 ng/mL
Liver ng/mg 24 h ([3]; 10 mpk): 100 to 1000 ng/mg
Plasma ng/mL (24 h) ([3]; 10 mpk): <100 ng/mL
Liver ng/mg (6 h) ([3]; 30 mpk): 100 to 1000 ng/mg
Plasma ng/mL (6 h) ([3]; 30 mpk): 100 to 1000 ng/mL
Liver ng/mg 24 h ([3]; 30 mpk): <100 ng/mg
Plasma ng/mL (24 h) ([3]; 30 mpk): <100 ng/mL
Compound: CC(C)(C)c1cc(-c2cncc(-c3ccc(C(=O)N4CCC(O)CC4)cc3Cl)c2)ccn1 [Compound Z-725]

From patent US11718628B2, “SREBP inhibitors comprising a 6-membered central ring” (Capulus Therapeutics, LLC, priority 2018, dated 2023)
